Ends that are not written are not given here. Peptide text beside a SMILES is read from it. * marks the point of attachment. Myristoyl = CCCCCCCCCCCCCC(=O)*

Assay [1] deals with HBV. Description: Polypeptide competition assay: inhibition of HBV infection of human hepatocyte cultures, HBsAg ELISA in supernatant. Conditions: for effect on HBV infectivity (HBsAg secretion): FIG. 1; for inhibitory activity against HBV infection, comparison of C-terminally truncated peptides: 0.8 to 800 nM. The format is cell-based. From the text: (§1) Fragments of normal adult human liver were obtained from patients undergoing hepatic resection for liver metastases (the fragments were taken at a distance from the metastasis in macroscopically normal liver). Access to this biopsy material was in agreement with French laws and satisfied the requirements of the French National Ethics Committee. Hepatocytes were isolated by the procedure of Guguen-Guillouzo and Guillouzo and cultured in H medium supplemented with 3.5×10^−6 M hydrocortisone hemisuccinate, 2 mM L-glutamine, 50 mg of gentamicin per litre, 2% dimethyl sulfoxide, 5% adult human serum, and 5% FCS. Three days after seeding, the cells were infected.
As an infectious inoculum, a 50-fold concentrated culture medium of HepG2 clone 2.2.15 cells was used, because of an unlimited supply and a constant quality.
It was prepared as described previously. Differentiated cells were incubated with the concentrated infectious source, 10-fold diluted in culture medium supplemented with 5% PEG 8000 (Sigma), for 20 h at 37° C. as described previously (Gripon et al., 1988; Gripon et al., 1993). Control cultures were incubated with 5% PEG and 25% FCS diluted in phosphate-buffered saline (PBS) instead of the infectious source. At the end of the incubation, cells were washed three times with the culture medium and maintained in the presence of 2% DMSO and 5×10^−5 M hydrocortisone hemisuccinate and harvested at indicated times.
(§2) Polypeptide competition assays were performed by pre-incubating cells with the analyzed polypeptide for 30 min, at 37° C., prior to the addition of the infectious source.
HBsAg was detected in the medium by an ELISA kit (Monolisa AgHBs plus) obtained from Bio-Rad Laboratories. Values are expressed in ng/ml of supernatant or percent of control (absence of peptide).
Background: An ELISA detects its analyte on a solid surface through an enzyme-linked reagent.

Assay [2] has as its system DHBV. The assay is described as follows: In vitro DHBV infection of primary duck hepatocytes. The format is cell-based.
Assay [3] relates to DHBV. Description: In vivo DHBV infection inhibition in ducks (Dot Blot of viral DNA, Western Blot of L protein in serum). Conditions: for L protein of DHBV in serum (Western Blot): 35 days post-infection, FIG. 6; for viral DNA in serum (Dot Blot): day 28 post-infection; for viral DNA in serum (Dot Blot) / viremia (Dot Blot of viral DNA in serum): FIG. 5; for viremia (Dot Blot of viral DNA in serum): ducks injected simultaneously with DHBV and peptide, days 9 and 15 post-infection. The method, then: Ducks are simultaneously injected with DHBV and duck preS Myr 2-41 (DpreS2-41^myr), heron preS Myr 2-44 (HepreS2-44^myr), human preS Myr 2-68 (HupreS2-68^myr), duck preS Myr 2-21 (DpreS2-21^myr) or ddH2O. The viremia of infected animals is assessed by Dot Blot analysis of viral DNA, 5, 9, 15 and 28 days post-infection.
(In western blotting, separated proteins are transferred to a membrane and probed.)

Assay [4] concerns HBV. Description: Inhibition of HBV infection of human hepatocytes, RNA analysis (Northern blot). It counts as cell-based. The settings on record: myristoylation and C-terminal truncation of pre-S1 peptides.
From the text: as §1
It was prepared as described previously. Differentiated cells were incubated with the concentrated infectious source, 10-fold diluted in culture medium supplemented with 5% PEG 8000 (Sigma), for 20 h at 37° C. as described previously (Gripon et al., 1988; Gripon et al., 1993). […]
as §2
Total cellular RNA was extracted by Total SV RNA kit (Promega, France), fractionated on a 1.5% agarose gel and analyzed by standard Northern blot procedure (Sambrook et al., 1989). […]

Setting [5] is: 1 μM peptide, HBsAg 14 days post-infection.
Setting [6] is: 800 nM, HBsAg 7 days after infection, FIG. 2.
The mark [7] stands for this setting: doses lower than 800 nM, FIG. 2.
Where [8] appears, read: HBsAg 7 days after infection, FIG. 2.
[9] abbreviates: 8 μM, HBsAg 8 days after infection, FIG. 3.

On to “HBV PreS 1-78: non myristoylated peptide, pre-S1 amino acids 1 to 78 of Hepatitis B virus subtype ayw”, for which the “effect on HBV infectivity (HBsAg secretion)” value with HBV [1] (setting [5]) was “only a faint effect”.
In the case of “HBV Myr PreS 2-78: myristoylated HBV pre-S1 peptide, amino acids 2-78”, the figures for the “inhibitory activity against HBV infection” value with HBV [1] (setting [6]) and with HBV [1] (setting [7]) were “very efficient” and “less active”, respectively. The “effect on HBV infectivity (HBsAg secretion)” value in the assay on HBV [1] (setting [5]) was “almost completely abolish it”; in the assay with HBV [1] (lower doses than 1 μM), “partly inhibitory”.
For the compound `CCCCCCCCCCCCCC(=O)NCC(=O)N[C@@H](CCC(N)=O)C(=O)N[C@@H](Cc1c[nH]cn1)C(=O)N1CCC[C@H]1C(=O)N[C@@H](C)C(=O)N[C@@H](CCCCN)C(=O)N[C@@H](CO)C(=O)N[C@@H](CCSC)C(=O)N[C@@H](CC(=O)O)C(=O)N[C@H](C(=O)N[C@@H](CCCNC(=N)N)C(=O)N[C@@H](CCCNC(=N)N)C(=O)N[C@H](C(=O)N[C@@H](CCC(=O)O)C(=O)NCC(=O)NCC(=O)N[C@@H](CCC(=O)O)C(=O)N[C@H](C(=O)N[C@@H](CC(C)C)C(=O)N[C@@H](CC(C)C)C(=O)O)[C@@H](C)CC)[C@@H](C)CC)C(C)C` [DpreS2-21^myr] (Myristoyl-GQHPAKSMDVRRIEGGEILL-OH), the “in vitro inhibitory activity towards DHBV infection” value in the assay on DHBV [2] (primary duck hepatocytes) is listed as “no in vitro inhibitory activity”. For the same compound, in the assay with DHBV [3], the “L protein of DHBV in serum (Western Blot)” value is “not detected”, the “viral DNA in serum (Dot Blot)” value is recorded as “decreased or no longer detectable” and the “viremia (Dot Blot of viral DNA in serum)” value is on record as “transitory viremia”.
`CCCCCCCCCCCCCC(=O)NCC(=O)N[C@@H](CCC(N)=O)C(=O)N[C@@H](CC(N)=O)C(=O)N[C@@H](CC(C)C)C(=O)N[C@@H](CO)C(=O)N[C@H](C(=O)N[C@@H](CO)C(=O)N[C@@H](CC(N)=O)C(=O)N1CCC[C@H]1C(=O)N[C@@H](CC(C)C)C(=O)NCC(=O)N[C@@H](Cc1ccccc1)C(=O)N[C@@H](Cc1ccccc1)C(=O)N1CCC[C@H]1C(=O)N[C@@H](CC(=O)O)C(=O)N[C@@H](Cc1c[nH]cn1)C(=O)N[C@@H](CCC(N)=O)C(=O)N[C@@H](CC(C)C)C(=O)N[C@@H](CC(=O)O)C(=O)N1CCC[C@H]1C(=O)N[C@@H](C)C(=O)N[C@@H](Cc1ccccc1)C(=O)N[C@@H](CCCNC(=N)N)C(=O)N[C@@H](C)C(=O)N[C@@H](CC(N)=O)C(=O)N[C@H](C(=O)N[C@@H](C)C(=O)N[C@@H](CC(N)=O)C(=O)N1CCC[C@H]1C(=O)N[C@@H](CC(=O)O)C(=O)N[C@@H](Cc1c[nH]c2ccccc12)C(=O)N[C@@H](CC(=O)O)C(=O)N[C@@H](Cc1ccccc1)C(=O)N[C@@H](CC(N)=O)C(=O)N1CCC[C@H]1C(=O)N[C@@H](CC(N)=O)C(=O)N[C@@H](CCCCN)C(=O)N[C@@H](CC(=O)O)C(=O)N[C@H](C(=O)N[C@@H](Cc1c[nH]c2ccccc12)C(=O)N1CCC[C@H]1C(=O)N[C@@H](CC(=O)O)C(=O)N[C@@H](C)C(=O)N[C@@H](CC(N)=O)C(=O)N[C@@H](CCCCN)C(=O)N[C@H](C(=O)NCC(=O)O)C(C)C)[C@@H](C)O)[C@@H](C)O)[C@@H](C)O` [HBV Myr PreS 2-48]: the “inhibitory activity against HBV infection by RNA analysis” value with HBV [4] was “highest inhibitory activity”. Further, the “inhibitory activity against HBV infection, comparison of C-terminally truncated peptides” value with HBV [1] (setting [8]) was “highest inhibitory activity”.
For “Myristoyl-GLNQSTFNPLGFFPSHQLDPLFKANAGSADWDKNPNKDPWPQAHDTA [WMHBV Myr PreS 2-48]”, in the assay with HBV [1] (decreasing peptide concentrations, HBsAg day 10 post-infection, FIG. 4), the “comparative inhibitory activity towards HBV infection of human cells” value is “nearly as efficient as the HBV derived peptide”.
Consider `CCCCCCCCCCCCCC(=O)NCC(=O)N[C@@H](CCC(N)=O)C(=O)N[C@@H](CC(N)=O)C(=O)N[C@@H](CC(C)C)C(=O)N[C@@H](CO)C(=O)N[C@H](C(=O)N[C@@H](CO)C(=O)N[C@@H](CC(N)=O)C(=O)N1CCC[C@H]1C(=O)N[C@@H](CC(C)C)C(=O)NCC(=O)N[C@@H](Cc1ccccc1)C(=O)N[C@@H](Cc1ccccc1)C(=O)N1CCC[C@H]1C(=O)N[C@@H](CC(=O)O)C(=O)N[C@@H](Cc1c[nH]cn1)C(=O)N[C@@H](CCC(N)=O)C(=O)N[C@@H](CC(C)C)C(=O)N[C@@H](CC(=O)O)C(=O)N1CCC[C@H]1C(=O)N[C@@H](C)C(=O)N[C@@H](Cc1ccccc1)C(=O)N[C@@H](CCCNC(=N)N)C(=O)N[C@@H](C)C(=O)N[C@@H](CC(N)=O)C(=O)N[C@H](C(=O)N[C@@H](C)C(=O)O)[C@@H](C)O)[C@@H](C)O` [HBV Myr PreS 2-28], for which, in the assay on HBV [1] (setting [6]), the “inhibition of HBV infection” value was 50%. The “inhibitory activity against HBV infection” value in the assay on HBV [1] (setting [9]) is listed as “almost completely blocks HBV infection”. In the assay with HBV [1] (setting [8]), the “inhibitory activity against HBV infection, comparison of C-terminally truncated peptides” value is listed as “largely less active”.
In the case of “HBV Myr PreS 2-68: myristoylated HBV pre-S1 peptide, amino acids 2-68”, the “inhibitory activity against HBV infection” value in the assay with HBV [1] (setting [6]) is listed as “very efficient”; with HBV [1] (setting [7]), “less active”. Also, the “infection of ducks with DHBV” value in the assay on DHBV [3] (FIGS. 5 and 6) is given as “seems to delay but do not prevent infection”.
As for `CCCCCCCCCCCCCC(=O)NCC(=O)N[C@@H](CCC(N)=O)C(=O)N[C@@H](CC(N)=O)C(=O)N[C@@H](CC(C)C)C(=O)N[C@@H](CO)C(=O)N[C@H](C(=O)N[C@@H](CO)C(=O)N[C@@H](CC(N)=O)C(=O)N1CCC[C@H]1C(=O)N[C@@H](CC(C)C)C(=O)NCC(=O)N[C@@H](Cc1ccccc1)C(=O)N[C@@H](Cc1ccccc1)C(=O)N1CCC[C@H]1C(=O)N[C@@H](CC(=O)O)C(=O)N[C@@H](Cc1c[nH]cn1)C(=O)N[C@@H](CCC(N)=O)C(=O)N[C@@H](CC(C)C)C(=O)N[C@@H](CC(=O)O)C(=O)N1CCC[C@H]1C(=O)N[C@@H](C)C(=O)N[C@@H](Cc1ccccc1)C(=O)N[C@@H](CCCNC(=N)N)C(=O)N[C@@H](C)C(=O)N[C@@H](CC(N)=O)C(=O)N[C@H](C(=O)N[C@@H](C)C(=O)N[C@@H](CC(N)=O)C(=O)N1CCC[C@H]1C(=O)N[C@@H](CC(=O)O)C(=O)N[C@@H](Cc1c[nH]c2ccccc12)C(=O)N[C@@H](CC(=O)O)C(=O)N[C@@H](Cc1ccccc1)C(=O)N[C@@H](CC(N)=O)C(=O)N1CCC[C@H]1C(=O)N[C@@H](CC(N)=O)C(=O)N[C@@H](CCCCN)C(=O)O)[C@@H](C)O)[C@@H](C)O` [HBV Myr PreS 2-38], the “inhibitory activity against HBV infection” value in the assay on HBV [1] (setting [9]) is reported as “almost completely blocks HBV infection”.
Regarding `CCCCCCCCCCCCCC(=O)NCC(=O)N[C@@H](CCC(N)=O)C(=O)N[C@@H](Cc1c[nH]cn1)C(=O)N1CCC[C@H]1C(=O)N[C@@H](C)C(=O)N[C@@H](CCCCN)C(=O)N[C@@H](CO)C(=O)N[C@@H](CCSC)C(=O)N[C@@H](CC(=O)O)C(=O)N[C@H](C(=O)N[C@@H](CCCNC(=N)N)C(=O)N[C@@H](CCCNC(=N)N)C(=O)N[C@H](C(=O)N[C@@H](CCC(=O)O)C(=O)NCC(=O)NCC(=O)N[C@@H](CCC(=O)O)C(=O)N[C@H](C(=O)N[C@@H](CC(C)C)C(=O)N[C@@H](CC(C)C)C(=O)N[C@@H](CC(N)=O)C(=O)N[C@@H](CCC(N)=O)C(=O)N[C@@H](CC(C)C)C(=O)N[C@@H](C)C(=O)NCC(=O)N[C@@H](CCCNC(=N)N)C(=O)N[C@@H](CCSC)C(=O)N[C@H](C(=O)N1CCC[C@H]1C(=O)N[C@@H](CCCCN)C(=O)NCC(=O)N[C@H](C(=O)N[C@@H](CC(C)C)C(=O)N[C@H](C(=O)N[C@@H](Cc1c[nH]c2ccccc12)C(=O)N[C@@H](CO)C(=O)NCC(=O)N[C@@H](CCCCN)C(=O)N[C@@H](Cc1ccccc1)C(=O)N1CCC[C@H]1C(=O)O)[C@@H](C)O)[C@@H](C)O)[C@@H](C)CC)[C@@H](C)CC)[C@@H](C)CC)C(C)C` [DHBV Myr PreS 2-41] (Myristoyl-GQHPAKSMDVRRIEGGEILLNQLAGRMIPKGTLTWSGKFP-OH; C-terminus assumed), in the assay with DHBV [2], the “inhibition of DHBV infection” value was “strong inhibitor”. Further, in the assay on HBV [1] (text summary referring to table 1), the “activity on HBV infection” value is “complete absence of activity”. In addition, in the assay on DHBV [3], the “L protein of DHBV in serum (Western Blot)” value is reported as “not detected”, the “viral DNA in serum (Dot Blot)” value was “decreased or no longer detectable” and the “viremia (Dot Blot of viral DNA in serum)” value is recorded as “transitory viremia”.

The record behind these values is patent publication US7892754B2, “Hepatitis B virus pre-S1 derived synthetic polypeptides and uses thereof” (priority 2001, dated 2011).
